Measurements published in PMC7565988, “Insight into the Anticancer Activity of Copper(II) 5-Methylenetrimethylammonium-Thiosemicarbazonates and Their Interaction with Organic Cation Transporters” (Biomolecules, 2020).
Where two headings read alike, the source gives them in different places.

Experiments:
[1] = Proton dissociation constants (pKa) of proligands by UV/Vis spectrophotometric titration; format: physicochemical; details: for % HL at pH 7.4: fraction of proligand in neutral zwitterionic HL form at pH 7.4, computed with pKa; for pKa: proligand, phenolic OH, I = 0.1 M (KCl), t = 25 °C, water, read-out: pKa (H2L+)
Experimental: (§1) An Agilent Carry 8454 diode array spectrophotometer was used to record the UV/Vis spectra in the interval 200–800 nm. The path length was 1 cm. Proton dissociation constants (pKa) of the TSC ligands, the overall stability constants of the copper(II) monoligand complexes (logβ) and the individual spectra of the species in the various protonation states and stoichiometry were calculated by the computer program PSEQUAD [44]. Spectrophotometric titrations were performed on samples containing the proligands at 50 μM concentration by a KOH solution in the presence of 0.1 M KCl at 25.0 ± 0.1 °C in the pH range from 2 to 11.5, and the metal-to-ligand ratio was 1:0, 1:1 and 1:2. An Orion 710A pH-meter equipped with a Metrohm combined electrode (type 6.0234.100) and a Metrohm 665 Dosimat burette were used for the titrations. […] The average water ionisation constant (pKw) is 13.76 ± 0.05 in water. Argon was also passed over the solutions during the titrations. Measurements were also carried out in the range of ca. 1.0–2.0 by preparing individual samples in which KCl was partially or completely replaced by HCl and pH values (between 1 and 2) were calculated from the strong acid content.

[2] = test system: Colo 205 doxorubicin-sensitive colonic adenocarcinoma cells; test: MTT cytotoxicity (24 h) / antiproliferation (72 h) assay; format: cell-based, human; details: Homo sapiens, read-out: Colo205 IC50
Experimental: (§2) Human doxorubicin-sensitive Colo 205 (ATCC-CCL-222) and multidrug resistant Colo 320 (overexpressing ABCB1 (MDR1)-LRP (ATCC-CCL-220.1)) colonic adenocarcinoma cell lines were purchased from LGC Promochem, Teddington, UK. The cells were cultured in RPMI 1640 medium supplemented with 10% heat-inactivated fetal bovine serum, 2 mM L-glutamine, 1 mM Na-pyruvate and 100 mM Hepes. The cell lines were incubated at 37 °C, in a 5% CO2, 95% air atmosphere. The semi-adherent human colon cancer cells were detached with Trypsin-Versene (EDTA) solution for 5 min at 37 °C.
(§3) In the study non-cancerous human embryonic lung fibroblast MRC-5, human colonic adenocarcinoma cell line (doxorubicin-sensitive Colo 205, multidrug resistant Colo 320) and neuroblastoma cell line SH-SY5Y were used to determine the effect of compounds on cell growth. The effects of increasing concentrations of compounds on cell growth were tested in 96-well flat-bottomed microtiter plates. The compounds were diluted in a volume of 100 μL of medium.
(§4) In case of the colonic adenocarcinoma cells, the two-fold serial dilutions of compounds were prepared in 100 μL of RPMI 1640, horizontally. The semi-adherent colonic adenocarcinoma cells were treated with Trypsin–Versene (EDTA) solution. The cells were adjusted to a density of 2 × 10^4 cells in 100 μL of RPMI 1640 medium, and were added to each well, with the exception of the medium control wells. The final volume of the wells containing compounds and cells was 200 μL.
(§5) The culture plates were incubated at 37 °C for 24 h; at the end of the incubation period, 20 μL of MTT (thiazolyl blue tetrazolium bromide, Sigma) solution (from a stock solution of 5 mg/mL) were added to each well. After incubation at 37 °C for 4 h, 100 μL of sodium dodecyl sulfate (SDS) (Sigma) solution (10% in 0.01 M HCI) were added to each well and the plates were further incubated at 37 °C overnight. Cell growth was determined by measuring the optical density (OD) at 540/630 nm with Multiscan EX ELISA reader (Thermo Labsystems, Cheshire, WA, USA). […] Curves were fitted by GraphPad Prism software using the sigmoidal dose-response model (comparing variable and fixed slopes).
(§6) The method is similar to the one described in the assay for cytotoxic effect. […] The culture plates were incubated at 37 °C for 72 h and after the incubation time, the plates were stained with MTT according to the previous experimental protocol described for the cytotoxicity assay.

[3] = Distribution coefficient (D7.4), shake-flask method, n-octanol/buffered aqueous solution pH 7.40; format: physicochemical; details: n-octanol/PBS pH 7.4, 25 °C, read-out: logD7.4 (proligand)
Experimental: Distribution coefficients (D7.4) values were determined by the traditional shake-flask method in n-octanol/buffered aqueous solution at pH 7.40 (20 mM phosphate buffer saline (PBS)) at 25.0 ± 0.2 °C as described previously.

[4] = MTT cytotoxicity (24 h) / antiproliferation (72 h) assay; format: cell-based; details: human, MRC-5 embryonal lung fibroblast cells (non-cancerous); for IC50 at 24 h: 24 h exposure; for IC50 at 72 h: 72 h exposure
Experimental: (§7) MRC-5 human embryonal lung fibroblast cell line (ATCC CCL-171) was purchased from LGC Promochem, Teddington, UK. The cell line was cultured in Eagle’s Minimal Essential Medium (EMEM, containing 4.5 g/L glucose) supplemented with a non-essential amino acid mixture, a selection of vitamins and 10% heat-inactivated foetal bovine serum. The cell line was incubated at 37 °C, in a 5% CO2, 95% air atmosphere.
as §3
(§8) The adherent human embryonal lung fibroblast and SH-SY5Y neuroblastoma cells were cultured in 96-well flat-bottomed microtiter plates, using EMEM supplemented with 10% heat-inactivated foetal bovine serum. The density of the cells was adjusted to 2 × 10^4 cells in 100 μL per well, the cells were seeded for 24 h at 37 °C, 5% CO2, then the medium was removed from the plates containing the cells, and the dilutions of compounds previously made in a separate plate were added to the cells in 200 μL.
as §5, §6

[5] = test system: Colo 320 multidrug resistant colonic adenocarcinoma cells (overexpressing ABCB1 (MDR1)-LRP); test: as above; format: cell-based; details: Homo sapiens, read-out: Colo320 IC50
Experimental: as §2, §3, §4, §5, §6

[6] = Solution stability of copper(II) complexes, UV/Vis spectrophotometric titration; format: physicochemical; details: for logβ [Cu(HL)]2+ / logβ [CuL]+: copper(II) complex of the proligand; for logβ [Cu(HL)]2+ / logβ [CuL]+ / logβ [CuLH−1]: I = 0.1 M (KCl), t = 25 °C; for logKderived [CuLH−1]+: logβ [CuL]+ − pKa (H2L+); for logβ [CuLH−1]: mixed hydroxido [CuL(OH)] species; for pCu (−log[Cu(II)]): pH = 7.4, cCu(II) = 10 μM, cL = 10 μM
Experimental: as §1

[7] = test system: SH-SY5Y neuroblastoma cells; test: MTT cytotoxicity (24 h) / antiproliferation (72 h) assay; format: cell-based, human; details: SH-SY5Y; for IC50: Homo sapiens, MTT; for enhancement of cytotoxicity by chelation to copper(II), factor: proligand vs its copper(II) complex
Experimental: as §7, with “SH-SY5Y (ATCC® CRL-2266™) neuroblastoma” for “MRC-5 human embryonal lung fibroblast”, “line” for “line (ATCC CCL-171)”
as §3, §8, §5, §6

| Compound | % HL at pH 7.4 [1] [%] | pKa [1] | IC50 ([2]; COLO 205, 24 h exposure) [µM] | IC50 ([2]; COLO 205, 72 h exposure) [µM] | logD [3] | IC50 at 24 h [4] [µM] | IC50 at 72 h [4] [µM] | IC50 ([5]; 24 h exposure) [µM] | IC50 ([5]; 72 h exposure) [µM] | logβ [Cu(HL)]2+ [6] | logβ [CuL]+ [6] | logKderived [CuLH−1]+ [6] | logβ [CuLH−1] [6] | pCu (−log[Cu(II)]) [6] | IC50 ([7]; 24 h exposure) [µM] | IC50 ([7]; 72 h exposure) [µM] | enhancement of cytotoxicity by chelation to copper(II), factor [7] |
| --- | --- | --- | --- | --- | --- | --- | --- | --- | --- | --- | --- | --- | --- | --- | --- | --- | --- |
| CNC(=S)N/N=C/c1cc(C[N+](C)(C)C)ccc1O [[H2L^Me]Cl] | 42 | 7.54 ± 0.01 | > 100 | > 100 | -0.39 ± 0.01 | > 100 | > 100 | > 100 | 74.4 ± 3.85 | 11.73 ± 0.02 | 7.76 ± 0.02 | 0.22 | −1.48 ± 0.08 | 11.79 | > 100 | > 100 | ca. 7 |
| C[N+](C)(C)Cc1ccc(O)c(/C=N/NC(=S)Nc2ccccc2)c1 [[H2L^Ph]Cl] | 70 | 7.03 ± 0.01 | > 100 | > 100 | 0.68 ± 0.04 | > 100 | > 100 | > 100 | 95.8 ± 1.58 | 11.26 ± 0.02 | 8.55 ± 0.02 | 1.52 | −1.31 ± 0.05 | 12.80 | > 100 | 31.5 ± 2.66 | – |
| C[N+](C)(C)Cc1ccc(O)c(/C=N/NC(N)=S)c1 [[H2L^H]Cl] | 47 | 7.46 ± 0.01 | > 100 | > 100 | -0.84 ± 0.03 | > 100 | > 100 | > 100 | 88.8 ± 5.32 | 12.00 ± 0.01 | 8.14 ± 0.01 | 0.68 | −1.66 ± 0.02 | 12.21 | > 100 | > 100 | ca. 2 |
| CCNC(=S)N/N=C/c1cc(C[N+](C)(C)C)ccc1O [[H2L^Et]Cl] | 55 | 7.31 ± 0.01 | > 100 | > 100 | 0.06 ± 0.04 | > 100 | > 100 | 63.8 ± 3.92 | 53.3 ± 2.44 | 11.66 ± 0.03 | 7.67 ± 0.03 | 0.36 | −1.65 ± 0.09 | 11.82 | 88.1 ± 9.19 | 49.9 ± 3.97 | – |
